Laboratory results reported in patent US20220323406A1, “METHODS AND COMPOSITIONS FOR DIFFERENTIATING STEM CELLS” (Massachusetts Institute of Technology, priority 2019, published 2022).
Entries after “also recorded” stand apart in the source; their conditions may differ.

Tests used:
[1] = test system: Paneth, goblet and cycling cells of small intestine; assay: KPT-330 treatment in vivo (Example 1), histology of proximal and distal small intestine; set-up: cycling cell number, distal small intestine: dose or concentration left out as unconfirmed
[2] = test system: ENR+CD organoids (ISC to Paneth cell differentiation); assay: Secondary (validation) screen: LYZ.S CCh-stimulated lysozyme secretion, 2.5-D 384-well ENR+CD organoids; assay type: cell-based, mouse; conditions: for Dose.FC.LYZ.S: 6-day ENR+CD, vs ENR+CD+DMSO
[3] = test system: ENR+CD organoids; assay: Primary screen: ATP (CellTiter-Glo 3D, CTG) cell number/viability, 2.5-D 384-well ENR+CD organoids; conditions: for Dose.FC.CTG (log2 fold change): primary screen;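 on all read-outs here: compounds given at plating and again on day 3 over a 6-day differentiation from ENR+CV stem-cell-enriched precursors, ATP measured on day 6, plate median as control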
[4] = test system: ENR+CD organoids, stem II/III cells; assay: Single-cell RNA-sequencing (Seq-Well) of organoid differentiation time course; assay type: cell-based, mouse
Source text: For time points beyond 2 days, media was refreshed every other day. Following the Seq-Well protocol Applicants followed a standard library preparation, sequencing, and alignment process (see Methods).
Single-cell RNA-sequencing. A single-cell suspension was obtained from organoids cultured under conditions for the differentiation time course as described above. Applicants utilized the Seq-Well platform for massively parallel scRNA-seq to capture transcriptomes of single cells on barcoded mRNA capture beads. […] In brief, 20,000 cells from one organoid condition were loaded onto one array containing 100,000 barcoded mRNA capture beads. The loaded arrays containing cells and beads were then sealed using a polycarbonate membrane with a pore size of 0.01 μm, which allows for exchange of buffers but retains biological molecules confined within each microwell. Subsequent exchange of buffers allows for cell lysis, transcript hybridization, and bead recovery before performing reverse transcription en masse. Following reverse transcription and exonuclease treatment to remove excess primers, PCR amplification was carried out using KAPA HiFi PCR Mastermix with 2,000 beads per 50 μL reaction volume. Libraries were then pooled and purified using Agencourt AMPure XP beads (Beckman Coulter, A63881) by a 0.6×SPRI followed by a 0.8×SPRI and quantified using Qubit hsDNA Assay (Thermo Fisher). Libraries were constructed using the Nextera Tagmentation method on a total of 800 pg of pooled cDNA library per sample. […] Arrays were sequenced with an Illumina NovaSeq System. The read structure was paired end with Read 1 starting from a custom read 1 primer containing 20 bases with a 12 bp cell barcode and 8 bp unique molecular identifier (UMI) and Read 2 being 50 bases containing transcript information.
Single-cell RNA-sequencing computational pipelines and analysis.

[5] = test system: ENR+CD organoids (ISC to Paneth cell differentiation); assay: Secondary (validation) screen: LYZ.NS basal lysozyme secretion, 2.5-D 384-well ENR+CD organoids; assay type: cell-based, mouse; conditions: for Dose.FC.LYZ.NS: 6-day ENR+CD, vs ENR+CD+DMSO
[6] = test system: ENR+CD organoids (ISC to Paneth cell differentiation); assay: Primary screen: basal (non-stimulated) lysozyme secretion LYZ.NS, 2.5-D 384-well ENR+CD organoid differentiation; assay type: cell-based, mouse; conditions: for Dose.FC.LYZ.NS (log2 fold change) / Z.LYZ.NS (standard z score): primary screen
Source text: High-throughput screening.

[7] = validated dose-treatments, mean fold change vs ENR+CD+DMSO
[8] = stem II/III, day 0.25-2, FDR<0.05

Compound: O=C(/C=C\n1cnc(-c2cc(C(F)(F)F)cc(C(F)(F)F)c2)n1)NNc1cnccn1 [KPT-330]
- Paneth cell number, distal small intestine ([1]; high dose): decreased Paneth cells
- cycling cell number, distal small intestine ([1]; low dose): significant increase in cycling cell number
- Paneth cell number, proximal small intestine ([1]; oral gavage, 1 week): no significant shift in Paneth cell number
- effect by histology ([1]; oral gavage, 1 week): pro-differentiation effect
- goblet cell numbers, proximal/distal small intestine ([1]; oral gavage, 1 week): no significant shift in goblet cell numbers
- Dose.FC.LYZ.S ([2]; 0.02 uM): −0.004 log2 fold change
- Dose.FC.LYZ.S ([2]; 0.04 uM): −0.077 log2 fold change
- Dose.FC.LYZ.S ([2]; 0.08 uM): 0.134 log2 fold change
- Dose.FC.LYZ.S ([2]; […]): 0.215 log2 fold change
- increase in stimulated LYZ secretion (LYZ.S) relative to ENR+CD control [2, 7]: 50-75%
- toxicity in primary screening ([3]; concentrations higher than 160 nM, 6 days): toxic
- Dose.FC.CTG (log2 fold change) ([3]; dose 0.08 uM): 0.210
- Dose.FC.CTG (log2 fold change) ([3]; dose 0.40 uM): −0.657
- Dose.FC.CTG (log2 fold change) ([3]; dose 2.00 uM): −0.894
- Dose.FC.CTG (log2 fold change) ([3]; dose 10.00 uM): −1.876
- day 6 Paneth cell odds ratio (OR), treated vs control ([4]; 160 nM KPT-330 in ENR+CD): ~2
- organoid cell type composition over differentiation time course ([4]; 160 nM KPT-330 in ENR+CD vs ENR+CD, day 0.25-6): enhances stem conversion to mature cells; also recorded: relative depletion of stem I (and stem II & III) and enteroendocrine cells over time along with the corresponding enrichment of enterocytes and Paneth cells
- Atf3 (ATF3) expression ([4]; KPT-330 treated vs control cells): upregulated
- active / quiescent ISC signature in early stem cell populations ([4]; early stem II/III cells): induces a quiescent ISC signature and reduces an active ISC signature; also recorded: transition into quiescence
- GSEA hallmark programs: mitogen-driven signaling (E2F, MYC targets, G2M checkpoint) [4, 8]: suppresses programs downstream of mitogen-driven signaling
- GSEA hallmark programs: stress response (NFkB signaling, hypoxia, inflammatory response) [4, 8]: up-regulating programs broadly resembling a complex stress response
- Dose.FC.LYZ.NS ([5]; 0.02 uM): −0.005 log2 fold change
- Dose.FC.LYZ.NS ([5]; 0.04 uM): −0.040 log2 fold change
- Dose.FC.LYZ.NS ([5]; 0.08 uM): 0.142 log2 fold change
- validated doses in secondary screen (SSMD above cutoff in both LYZ assays) ([5]; LYZ.NS and LYZ.S): multiple validated doses
- Dose.FC.LYZ.NS ([5]; […]): 0.244 log2 fold change
- increase in basal LYZ secretion (LYZ.NS) relative to ENR+CD control [5, 7]: 50-75%
- primary screen hit call (SSMD and z-scored FC cutoffs in both LYZ assays) ([6]; LYZ.NS and LYZ.S, 0.08-10 uM, 6 days ENR+CD): sole hit in their respective pathway
- Dose.FC.LYZ.NS (log2 fold change) ([6]; dose 0.08 uM): 0.200
- Z.LYZ.NS (standard z score) ([6]; dose 0.08 uM): 1.745
- Dose.FC.LYZ.NS (log2 fold change) ([6]; dose 0.40 uM): −0.266
- Z.LYZ.NS (standard z score) ([6]; dose 0.40 uM): −2.317
- Dose.FC.LYZ.NS (log2 fold change) ([6]; dose 2.00 uM): −0.280
- Z.LYZ.NS (standard z score) ([6]; dose 2.00 uM): −2.439
- Dose.FC.LYZ.NS (log2 fold change) ([6]; dose 10.00 uM): −0.284
- Z.LYZ.NS (standard z score) ([6]; dose 10.00 uM): −2.470
